target: recombinant human LRRK2 (catalytic domain only [amino acids 970-2527], GST-tagged) (Homo sapiens (Human), UniProt Q5S007); experiment: LRRK2 Enzymatic Assay; format: biochemical; details: LRRKtide substrate, [32P]-ATP
Summary of the method: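 GST-tagged catalytic domain (aa 970-2527) at 30 nM with 20 μM LRRKtide in HEPES pH 7.5/MgCl2 buffer, 1% DMSO; compounds (10 μM to 0.5 nM) preincubated 20 min, then [32P]-ATP added for 2 h at room temperature. P81 phosphocellulose capture; activity as % of vehicle, IC50 by curve fit.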

Sequence of recombinant human LRRK2 (catalytic domain only [amino acids 970-2527], GST-tagged) (Q5S007 970-2527): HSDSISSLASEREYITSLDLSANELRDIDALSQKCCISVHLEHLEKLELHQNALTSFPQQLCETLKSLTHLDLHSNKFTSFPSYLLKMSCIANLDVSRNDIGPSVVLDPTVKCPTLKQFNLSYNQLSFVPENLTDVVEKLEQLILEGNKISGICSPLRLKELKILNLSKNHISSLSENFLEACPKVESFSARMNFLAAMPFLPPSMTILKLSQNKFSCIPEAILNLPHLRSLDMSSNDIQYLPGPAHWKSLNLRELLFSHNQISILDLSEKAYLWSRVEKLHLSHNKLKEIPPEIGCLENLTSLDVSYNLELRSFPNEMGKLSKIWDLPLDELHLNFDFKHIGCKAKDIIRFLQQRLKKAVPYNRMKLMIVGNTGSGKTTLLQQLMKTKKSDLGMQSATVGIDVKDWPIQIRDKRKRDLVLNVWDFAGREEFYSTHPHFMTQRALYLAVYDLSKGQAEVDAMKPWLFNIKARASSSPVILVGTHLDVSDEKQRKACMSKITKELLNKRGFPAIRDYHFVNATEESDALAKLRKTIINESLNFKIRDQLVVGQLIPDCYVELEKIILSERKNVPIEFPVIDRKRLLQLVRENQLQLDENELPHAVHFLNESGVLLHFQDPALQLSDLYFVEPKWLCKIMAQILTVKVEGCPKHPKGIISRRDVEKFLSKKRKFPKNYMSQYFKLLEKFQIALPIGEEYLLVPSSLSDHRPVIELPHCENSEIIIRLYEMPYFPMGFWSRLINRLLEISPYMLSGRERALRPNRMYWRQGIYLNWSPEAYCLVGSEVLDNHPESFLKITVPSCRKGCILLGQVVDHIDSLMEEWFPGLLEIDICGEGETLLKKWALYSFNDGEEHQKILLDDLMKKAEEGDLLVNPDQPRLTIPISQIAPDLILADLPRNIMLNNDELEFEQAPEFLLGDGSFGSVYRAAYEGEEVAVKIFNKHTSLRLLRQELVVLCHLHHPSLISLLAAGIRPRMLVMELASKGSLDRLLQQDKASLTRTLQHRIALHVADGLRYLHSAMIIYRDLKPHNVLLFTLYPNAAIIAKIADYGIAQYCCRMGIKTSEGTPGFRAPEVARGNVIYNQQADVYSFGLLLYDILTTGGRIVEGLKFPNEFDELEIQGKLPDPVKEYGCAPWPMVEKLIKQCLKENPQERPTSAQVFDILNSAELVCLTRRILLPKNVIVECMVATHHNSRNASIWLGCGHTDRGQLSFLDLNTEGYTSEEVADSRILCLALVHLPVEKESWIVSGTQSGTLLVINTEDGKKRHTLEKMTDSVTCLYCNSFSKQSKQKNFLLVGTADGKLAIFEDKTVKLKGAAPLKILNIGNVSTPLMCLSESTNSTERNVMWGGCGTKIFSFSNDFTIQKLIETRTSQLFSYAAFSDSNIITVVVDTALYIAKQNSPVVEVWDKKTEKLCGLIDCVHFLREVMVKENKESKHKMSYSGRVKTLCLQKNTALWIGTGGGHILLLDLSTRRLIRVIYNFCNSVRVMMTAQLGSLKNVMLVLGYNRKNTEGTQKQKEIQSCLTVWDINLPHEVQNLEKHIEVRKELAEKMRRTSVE

`COc1cnc(Nc2ccc(N3CCOCC3)cc2)nc1OC[C@H]1CC[C@H](N)CC1` [Example 8, 4-(((1R,4R)-4-aminocyclohexyl)methoxy)-5-methoxy-N-(4-morpholinophenyl) pyrimidin-2-amine] and `N#CC1CCC(COc2nc(Nc3ccc(N4CCOCC4)cc3)ncc2F)CC1` (racemic) [Example 272, 4-(((5-fluoro-2-((4-morpholinophenyl)amino)pyrimidin-4-yl)oxy)methyl)cyclohexane-1-carbonitrile] cannot be ordered by IC50: under 50 nM for the first, under 50 nM for the second.

`Cc1nn(C(C)(C)C#N)cc1Nc1ncc(F)c(OC[C@@H]2CCC[C@@H](O)C2)n1` [Example 250, 2-(4-((5-fluoro-4-(((1R,3R)-3-hydroxycyclohexyl)methoxy)pyrimidin-2-yl)amino)-3-methyl-1H-pyrazol-1-yl)-2-methylpropanenitrile] and `Cc1nn(C(C)(C)C#N)cc1Nc1ncc(F)c(OC[C@H]2CC[C@@H](O)CC2)n1` [Example 126, 2-(4-((5-fluoro-4-(((1S,4S)-4-hydroxycyclohexyl)methoxy)pyrimidin-2-yl)amino)-3-methyl-1H-pyrazol-1-yl)-2-methylpropanenitrile] cannot be ordered by IC50: under 50 nM for the first, under 50 nM for the second.

First: C[C@@H]1CN(c2ccc(Nc3nccc(OCC45CCC(O)(CC4)CC5)n3)cc2)C[C@H](C)O1 [Example 142, 4-(((2-((4-((2S,6R)-2,6-dimethylmorpholino)phenyl)amino)pyrimidin-4-yl)oxy)methyl)bicyclo[2.2.2]octan-1-ol]
Second: C[C@@H]1CN(c2ccc(Nc3ncc(F)c(OCC45CCC(O)(CC4)CC5)n3)cc2)C[C@H](C)O1 [Example 143, 4-(((2-((4-((2S,6R)-2,6-dimethylmorpholino)phenyl)amino)-5-fluoropyrimidin-4-yl)oxy)methyl)bicyclo[2.2.2]octan-1-ol]
The IC50 of the first is higher: over 400 nM for the first, 50 to 200 nM for the second.

Compared with `CC(=O)N[C@H]1C[C@H](COc2ccnc(Nc3ccc(N4CCOCC4)cc3)n2)C1` [Example 94, N-((1R,3R)-3-(((2-((4-morpholinophenyl)amino)pyrimidin-4-yl)oxy)methyl)cyclo-butyl)acetamide], `N[C@H]1CC[C@@H](COc2ccnc(Nc3ccc(N4CCOCC4)cc3)n2)C1` [Example 15, 4-(((1R,3S)-3-aminocyclopentyl)methoxy)-N-(4-morpholinophenyl) pyrimidin-2-amine] is lower in IC50: over 400 nM for the first, 50 to 200 nM for the second.

`COC1CCC(COc2nc(Nc3cn(C(C)(C)C#N)nc3C)ncc2Cl)CC1` (stereo not drawn) [Example 161, 2-(4-((5-chloro-4-((4-methoxycyclohexyl)methoxy)pyrimidin-2-yl)amino)-3-methyl-1H-pyrazol-1-yl)-2-methylpropanenitrile] and `Cc1nn(C(C)(C)C#N)cc1Nc1ncc(Cl)c(OC[C@H]2CC[C@H](NC(=O)C(F)F)CC2)n1` [Example 100, N-((1R,4R)-4-(((5-chloro-2-((1-(2-cyano-propan-2-yl)-3-methyl-1H-pyrazol-4-yl)amino)pyrimidin-4-yl)oxy)methyl)cyclohexyl)-2,2-difluoro-acetamide] cannot be ordered by IC50: under 50 nM for the first, under 50 nM for the second.

Compared with `O[C@H]1CC[C@H](COc2nc(Nc3cnn(C4CC4)c3)ncc2F)CC1` [Example 220, (1R,4R)-4-(((2-((1-cyclopropyl-1H-pyrazol-4-yl)amino)-5-fluoropyrimidin-4-yl)oxy)methyl)cyclohexan-1-ol], `COc1nn(C2CC2)cc1Nc1ncc(F)c(OC[C@H]2CC[C@H](O)CC2)n1` [Example 245, (1R,4R)-4-(((2-((1-cyclopropyl-3-methoxy-1H-pyrazol-4-yl)amino)-5-fluoropyrimidin-4-yl)oxy)methyl)cyclohexan-1-ol] is higher in IC50: 50 to 200 nM for the first, 200 to 400 nM for the second. The first is the more potent here.

First: C[C@@H]1CN(c2ccc(Nc3ncc(F)c(OCC4CCC(OC(F)(F)F)CC4)n3)cc2)C[C@H](C)O1 (stereo partly drawn) [Example 283, N-(4-((2S,6R)-2,6-dimethylmorpholino)phenyl)-5-fluoro-4-((4-(trifluoromethoxy)cyclohexyl)methoxy)pyrimidin-2-amine]
Second: C[C@@H]1CN(c2ccc(Nc3ncc(F)c(OCC4CCC(O)CC4)n3)cc2)C[C@H](C)O1 (stereo partly drawn) [Example 124, 4-(((2-((4-((2S,6R)-2,6-dimethylmorpholino)phenyl)amino)-5-fluoropyrimidin-4-yl)oxy)methyl)cyclohexan-1-ol]
The IC50 of the first is higher: over 400 nM for the first, under 50 nM for the second.

`CN1CCC(COc2nc(Nc3ccc(N4CCOCC4)cc3)ncc2Cl)CC1` [Example 56, 5-chloro-4-((1-methylpiperidin-4-yl)methoxy)-N-(4-morpholinophenyl)py-rimidin-2-amine] and `O=C(C(F)F)N1CCC(COc2nc(Nc3ccc(N4CCOCC4)cc3)ncc2Cl)CC1` [Example 109, 1-(4-(((5-chloro-2-((4-morpholino-phenyl)amino)pyrimidin-4-yl)oxy)methyl)piperidin-1-yl)-2,2-difluoro-ethan-1-one] cannot be ordered by IC50: under 50 nM for the first, under 50 nM for the second.

`OC1CC2(C1)CC(COc1nc(Nc3ccc(N4CCOCC4)cc3)ncc1F)C2` (stereo not drawn) [Example 134, 6-(((5-fluoro-2-((4-morpholinophenyl)amino)pyrimidin-4-yl)oxy)methyl)spiro[3.3]heptan-2-ol] and `CC(=O)NC1CCCC(COc2nc(Nc3ccc(N4CCOCC4)cc3)ncc2F)CC1` (stereo not drawn) [Example 85, N-(4-(((5-fluoro-2-((4-morpholinophenyl)amino)pyrimidin-4-yl)oxy)methyl)cyclo-heptyl)acetamide] cannot be ordered by IC50: under 50 nM for the first, under 50 nM for the second.

First: Cc1nn(C(C)(C)C#N)cc1Nc1ncc(F)c(OCC2(F)CCNCC2)n1 [Example 25, 2-(4-((5-fluoro-4-((4-fluoropiperidin-4-yl)methoxy)pyrimidin-2-yl)amino)-3-methyl-1H-pyrazol-1-yl)-2-methylpropanenitrile]
Second: Cc1nn(C(C)(C)C#N)cc1Nc1ncc(F)c(OCC2CCNCC2F)n1 (single isomer, unassigned) [Example 170, 2-(4-((5-fluoro-4-((3-fluoropiperidin-4-yl)methoxy)pyrimidin-2-yl)amino)-3-methyl-1H-pyrazol-1-yl)-2-methylpropanenitrile]
The IC50 of the first is lower: under 50 nM for the first, 50 to 200 nM for the second.

First: Fc1cnc(Nc2ccc(N3CCOCC3)cc2)nc1OCC1CCC(OC(F)(F)F)CC1 (single isomer, unassigned) [Example 282, 5-fluoro-N-(4-morpholinophenyl)-4-((4-(trifluoromethoxy)cyclohexyl)methoxy)pyrimidin-2-amine]
Second: O=C(N[C@H]1CC[C@H](COc2nc(Nc3ccc(N4CCOCC4)cc3)ncc2F)CC1)C(F)(F)F [Example 99, 2,2,2-trifluoro-N-((1R,4R)-4-(((5-fluoro-2-((4-morpholino-phenyl)amino)pyrimidin-4-yl)oxy)methyl)cyclohexyl) acetamide]
The IC50 of the first is higher: over 400 nM for the first, under 50 nM for the second. The second is the more potent here.

Compared with `CC(=O)N[C@H]1CC[C@H](COc2nc(Nc3ccc(N4CCOCC4)cc3)ncc2C2CC2)CC1` [Example 88, N-((1R,4R)-4-(((5-cyclopropyl-2-((4-morpholinophenyl)amino)pyrimidin-4-yl)oxy)methyl)cyclo-hexyl)acetamide], `OC1CCC(COc2ccnc(Nc3ccc(N4CCOCC4)cc3)n2)CC1` (stereo not drawn) [Example 117, 4-(((2-((4-morpholinophenyl)amino)pyrimidin-4-yl)oxy)methyl)cyclohexanol] is higher in IC50: 50 to 200 nM for the first, 200 to 400 nM for the second. The first is the more potent here.

First: CC(=O)NC1CCC(C)(COc2ccnc(Nc3ccc(N4C[C@@H](C)O[C@@H](C)C4)cc3)n2)CC1 (stereo partly drawn) [Example 90, N-(4-(((2-((4-((2S,6R)-2,6-dimethylmorpholino)phenyl)amino)py-rimidin-4-yl)oxy)methyl)-4-methylcyclohexyl) acetamide]
Second: C[C@@H]1CN(c2ccc(Nc3ncc(F)c(OCC4CCC(F)(F)C4)n3)cc2)C[C@H](C)O1 (stereo partly drawn) [Example 271, 4-((3,3-difluorocyclopentyl)methoxy)-N-(4-((2S,6R)-2,6-dimethylmorpholino)phenyl)-5-fluoropyrimidin-2-amine]
The IC50 of the first is higher: over 400 nM for the first, 50 to 200 nM for the second. The second is the more potent here.

First: COCCn1cc(Nc2ncc(F)c(OC[C@H]3CC[C@H](O)CC3)n2)cn1 [Example 226, (1R,4R)-4-(((5-fluoro-2-((1-(2-methoxyethyl)-1H-pyrazol-4-yl)amino)pyrimidin-4-yl)oxy)methyl)cyclohexan-1-ol]
Second: CC(=O)N[C@H]1CC[C@H](COc2nc(Nc3cn(C)nc3Cl)ncc2F)CC1 [Example 201, N-((1R,4R)-4-(((2-((3-chloro-1-methyl-1H-pyrazol-4-yl)amino)-5-fIuoropyrimidin-4-yl)oxy)methyl)cyclo-hexyl)acetamide]
The IC50 of the first is higher: 50 to 200 nM for the first, under 50 nM for the second. The second is the more potent here.

Going from `Cc1nn(C(C)(C)C#N)cc1Nc1nc(C)c(F)c(OC[C@H]2CC[C@H](O)CC2)n1` [Example 267, 2-(4-((5-fluoro-4-(((1R,4R)-4-hydroxycyclohexyl)methoxy)-6-methylpyrimidin-2-yl)amino)-3-methyl-1H-pyrazol-1-yl)-2-methylpropanenitrile] to `CC(=O)N[C@H]1CC[C@H](COc2nc(Nc3cnn(C(C)(C)C#N)c3C)ncc2F)CC1` [Example 199, N-((1R,4R)-4-(((2-((1-(2-cyanopropan-2-yl)-5-methyl-1H-pyrazol-4-yl)amino)-5-fluoropyrimidin-4-yl)oxy)methyl)cyclo-hexyl)acetamide], the IC50 falls from over 400 nM to under 50 nM. The second is the more potent here.

`COc1cc(C(=O)N2CCOCC2)c(F)cc1Nc1ncc(F)c(OC[C@H]2CC[C@H](NC(C)=O)CC2)n1` [Example 182, N-((1R,4R)-4-(((5-fluoro-2-((5-fluoro-2-methoxy-4-(morpholine-4-carbonyl)phenyl)amino)pyrimidin-4-yl)oxy)methyl)cyclo-hexyl)acetamide] and `CC(=O)N[C@H]1CC[C@H](COc2nc(Nc3cn(C(F)F)nc3C)ncc2F)CC1` [Example 197, N-((1R,4R)-4-(((2-((1-(difluoromethyl)-3-methyl-1H-pyrazol-4-yl)amino)-5-fluoropyrimidin-4-yl)oxy)methyl)cyclo-hexyl)acetamide] fall in the same range of IC50: 50 to 200 nM for the first, 50 to 200 nM for the second.

Compound `CC(=O)N1CCC(COc2nc(Nc3ccc(N4CCOCC4)cc3)ncc2Cl)C(F)(F)C1` (stereo not drawn) [Example 95, 1-(4-(((5-chloro-2-((4-morpholinophenyl)amino)pyrimidin-4-yl)oxy)methyl)-3,3-difluoropiperidin-1-yl)ethan-1-one] has an IC50 of under 50 nM.

— US11578061B2, “Inhibitors of LRRK2 kinase” (Halia Therapeutics, Inc., priority 2021, dated 2023)
